Data taken from publication PMC9309159, “Identification of heptapeptides targeting a lethal bacterial strain in septic mice through an integrative approach” (Signal Transduction and Targeted Therapy, 2022).

Tests used:
MSI001-Amp^r bacteria = experiment: Growth of ampicillin-resistant MSI001 bacteria; assay type: cell-based, Escherichia coli; conditions: 1×10^3 CFU/ml, peptide 1 μmol/L, 37°C, 3 hours, colony count, n=3
Protocol: (§1) Pseudomonas aeruginosa (ATCC27853) was purchased from American Type Culture Collection (ATCC) and cultured in Luria Broth (LB) medium with shaking at 37 °C. For construction of ampicillin-resistant MSI001 strain (MSI001-Amp^r), the pET14b plasmid carrying Amp^r marker gene was introduced into the wild type MSI001 strain. The MSI001-Amp^r strain was cultured in LB medium supplemented with Ampicillin of 100 µg/ml at 37 °C.
(§2) Figure S4. Inhibitory effect of LL37 and VTK-LL37 fusion peptides on bacterial growth. a Effect of VTK-LL37 on the growth of Ampicillin resistant (Amp^r) MSI001 bacteria. The bacterial strain MSI001 was transfected with pET14b plasmid to produce an Ampicillin resistant (Amp^r) MSI001 strain. The VTK-LL37 or LL37 peptide was added to the cultured MSI001-Amp^r bacteria (1×10^3 CFU/ml) with a final concentration of 1 μmol/L. After incubation with the VTK-LL37 or LL37 peptides at 37°C for 3 hours, bacterial colonies were counted. b Effect of VTK-LL37 on the growth of Pseudomonas aeruginosa. The bacterial colonies of Pseudomonas aeruginosa were counted as above. […]

[1] = test system: Pseudomonas aeruginosa (ATCC27853); experiment: Growth of Pseudomonas aeruginosa; assay type: cell-based; conditions: peptide 1 μmol/L, 37°C, 3 hours, colony count, n=3
Protocol: as §1, §2

E. coli MSI001 [2] = experiment: Survival of mice subjected to septic modeling with MSI001; assay type: in vivo, C57BL/6 mice; conditions: MSI001 6 × 10^6 CFU/g i.p.; peptide 0.2 nmol/g i.v. 1 h later; observed up to 168 h; Kaplan-Meier; n = 20
Excerpt: (§3) Wild-type C57 mice were intraperitoneally injected with MSI001 bacteria (6 × 10^6 CFU/g body weight) to reproduce a sepsis model. […] Normal saline (NS) was used as control. […] One hour after CLP modeling, the mice were intravenously injected with LL37 or VTK-LL37 peptide at a dosage of 0.2 nmol/g body weight. Equal volume of normal saline (NS) was used as control. […] The mice were intraperitoneally injected with MSI001 bacteria. One hour later, the mice were subjected to tail vein injection (TVI) with VTK-LL37 (VTK-LL37 group), LL37 (LL37 group) or an equivalent volume of NS (sepsis group). Wild-type mice without modeling were used as controls (control group). The blood bacteria were quantitated as colony forming units (CFU) 12 h after injection of bacteria. n = 8. *P < 0.05, compared to control; ^#P < 0.05, compared to sepsis group^; ΔP < 0.05, compared to LL37 group. Results are expressed as the median with range. d Suppression of VTK-LL37 on the production of HMGB1 in the blood of septic mice. […] Twelve hours after bacterial injection, HMGB1 in the serum was quantitated by ELISA. n = 8. *P < 0.05, compared to control; ^#P < 0.05, compared to sepsis group; ^ΔP < 0.05, compared to LL37 group^. Results are expressed as the mean ± SD. e, f Protective effect of VTK-LL37 against organ damage in mice subjected to bacterial injection. […]

E. coli MSI001 [3] = experiment: In vivo antibacterial assay (blood CFU); set-up: species or system C57BL/6 mice; conditions: MSI001 6 × 10^6 CFU/g i.p.; peptide 0.2 nmol/g tail vein 1 h later; blood CFU at 12 h; n = 8
Excerpt: as §3

## CVTKLGSLCVPGVGLLGDFFRKSKEKIGKEFKRIVQRIKDFLRNLVPRTES [VTK-LL37]
MSI001-Amp^r bacteria
  inhibitive effect on growth of ampicillin-resistant MSI001: more significant inhibitive effect on the bacterial growth of the ampicillin-resistant MSI001 bacteria in comparison with LL37
[1]
  inhibitory effect on growth of Pseudomonas aeruginosa: showed inhibitory effect on the growth of Pseudomonas aeruginosa
E. coli MSI001 [2]
  survival of septic mice: significantly increased the survival of septic mice
E. coli MSI001 [3]
  suppression of bacterial growth in blood of septic mice: stronger capability to suppress the bacterial growth of E. coli MSI001 in the blood of septic mice than LL37
